From US20110105380A1, “Protection of Nano-Scale Particles from Immune Cell Uptake” (THE TRUSTEES OF THE UNIVERSITY OF PENNSYLVANIA, priority 2009, published 2011)

Experiments:
THP-1 macrophages = assay: Phagocytosis of IgG-opsonized sheep RBCs by THP-1 macrophages; assay type: cell-based, human
Method: FIG. 5, comprising FIGS. 5A-5D, illustrates human macrophages and monocytes inhibited by human-CD47. FIG. 5A depicts DIC images of THP-1 phagocytes plus CD47-blocked, IgG-opsonized human-RBC, using F(ab′)2 made from monoclonal B6H12. The scale bars are […]. FIG. 5B depicts human peripheral blood monocyte plus CD47-blocked human-RBC following lysis after 45 min of phagocytosis: PKH26 labeled human RBC are depicted in the right hand panel: Lysed RBC labeled with FITC-anti-Fc indicates the cell is not internalized. Human-RBC and Sheep-RBC were phagocytosed by THP-1 cells in FIG. 5C, or human monocytes in FIG. 5D, depicting phagocytosis increases with opsonization. Inset depicts blebbistatin treatment of ShRBC showing decrease in phagocytosis. Phagocytosis is measured as the ratio of internalized RBCs per phagocyte with 200 phagocytes counted in triplicate experiments (±SEM).
FIG. 7 illustrates that myosin increases the efficiency of phagocytosis. Phagocytosis of IgG-opsonized sheep-RBC were measured as a ratio of internalized RBCs per phagocyte with 200 phagocytes counted in triplicate experiments (±SEM). The level of NMM IIA activity is normalized to WT levels in THP-1, with relative levels of knockdown or overexpression quantified by immunofluorescence and Western blot. Results for phagocytosis of the IgG-opsonized sheep-RBC were fit to a line; where the intercept approximates the result for human-RBC. The inset bar graph depicts blebbistatin inhibition of ShRBC phagocytosis by GFP-NMMIIA expressing WT THP-1.
Phagocytosis by the human-derived THP-1 macrophages of IgG-opsonized RBCs was studied by imaging in DIC microscopy. […] RBC membranes were prelabeled with PKH26, and non-engulfed RBCs were labeled with a fluorescein-labeled antibody against the Fc of the IgG-opsonin. […] A small number of human RBCs were engulfed for either type of phagocyte. […]
In light of the myosin differences seen by fluorescence at the various synapses (FIGS. 2-4), the effect of blebbistatin-inhibited myosin on phagocytosis was studied. […]

[1] = tested on: non-muscle myosin IIA at the phagocytic synapse of THP-1 macrophages; assay: Protein localization to the phagocytic synapse (immunofluorescence); assay type: cell-based, human; details: blebbistatin 50 μM, 10 min pre-incubation
Method: FIG. 4, comprising FIGS. 4A-4B, illustrates CD47 inhibiting myosin localization as similar to blebbistatin. Phagocytic synapses of THP-1 macrophages with IgG-opsonized sheep- or human-RBC (37° C., 10 min) after pre-incubation with blebbistatin (50 μM, 10 min). DMSO was used as a control. FIG. 4A depicts cells fixed and immunostained for non-muscle myosin IIA, F-actin, and Paxillin-Y^118. The scale bars are […]. FIG. 4B depicts quantitation of protein localization to the phagocytic synapse relative to the cytoplasmic intensity set at 1.0 (n=5 cells, ±SD). For cytoskeletal involvement at the phagocytic synapse, streptavidin beads opsonized with rabbit anti-streptavidin FITC. Opsonized beads of different sizes were added to THP-1 cells, PMA treated and immediately placed at 4° C. for 10 min to synchronize phagocytosis. […] For studies involving blebbistatin (EMD Biosciences), macrophages were treated for 10 min at 4° C. prior to temperature increase to 37° C. or for 45 min and 37° C. Macrophages treated with DMSO were used to verify no solvent effects. Immunostaining was performed by permeabilization with 0.1% Triton X-100 in PBS for 20 min before blocking for 1 h with 5% BSA in PBS. Staining with primary antibodies was carried out for 1 h at room temperature in PBS. […] Samples were analyzed by differential interference contrast (DIC) and fluorescence microscopy. […]

## Cc1ccc2c(c1)C(=O)C1(O)CCN(c3ccccc3)C1=N2 (stereo not shown) [blebbistatin]
THP-1 macrophages; 5 μM blebbistatin
  inhibition of ShRBC phagocytosis by GFP-NMM IIA expressing THP-1: ~50%
THP-1 macrophages; blebbistatin treatment, FIG. 5C
  engulfment of sheep RBCs by THP-1 macrophages: inhibited by blebbistatin to an extent similar to that of CD47 on human RBCs
THP-1 macrophages; engulfment of sheep RBCs by THP-1 macrophages, dose-response (not shown), read-out: Ki-blebb for blebbistatin inhibition of phagocytosis
  Ki: 5 µM
[1]
  enrichment of NMM IIA at synaptic contacts with sheep RBC targets: inhibited enrichment of NMM IIA
